Source: ChEMBL document CHEMBL2321730, “Development of κ opioid receptor antagonists” (J Med Chem, 2013)
Where a SMILES comes first, the peptide text is derived from it. [ ]: non-standard residue; d: D form.

Experiments:
Rattus norvegicus [1] = experiment: In vivo receptor occupancy at MOR in po dosed Harlan Sprague-Dawley rat brain after 5.5 hrs by LC/MS/MS analysis; assay type: functional
Rattus norvegicus [2] = experiment: In vivo receptor occupancy at DOR in po dosed Harlan Sprague-Dawley rat brain after 5.5 hrs by LC/MS/MS analysis; assay type: functional
[3] = molecular target: T1, Kappa-type opioid receptor (Homo sapiens, UniProt P41145); experiment: Inhibition of dynorphin A (1-13) NH2 binding to KOR (unknown origin) by adenylyl cyclase assay; assay type: functional
T1 sequence (P41145 whole entry): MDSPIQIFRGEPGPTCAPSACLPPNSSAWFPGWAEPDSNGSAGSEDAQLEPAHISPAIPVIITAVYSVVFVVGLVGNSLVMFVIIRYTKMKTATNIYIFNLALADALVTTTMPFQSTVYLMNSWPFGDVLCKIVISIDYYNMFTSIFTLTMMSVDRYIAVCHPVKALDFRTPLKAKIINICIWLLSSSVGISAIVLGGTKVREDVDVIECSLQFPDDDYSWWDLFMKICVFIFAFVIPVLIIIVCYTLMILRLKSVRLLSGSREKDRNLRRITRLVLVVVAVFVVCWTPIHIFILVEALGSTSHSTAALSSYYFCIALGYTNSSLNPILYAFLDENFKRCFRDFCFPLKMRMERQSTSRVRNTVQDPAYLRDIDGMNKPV

Mus musculus [4] = experiment: Antinociceptive activity in icv dosed C57B1/6J mouse assessed as tail withdrawal latency measured in every 10 mins for 1 hr by warm water tail withdrawal assay; assay type: functional, organism-based
[5] = molecular target: Kappa-type opioid receptor (Rattus norvegicus, UniProt P34975); experiment: Displacement of [3H]diprenorphine from rat cloned KOR expressed in CHO cells after 90 mins by scintillation counting analysis
Chain of Kappa-type opioid receptor (Rattus norvegicus, UniProt P34975) (P34975 whole entry): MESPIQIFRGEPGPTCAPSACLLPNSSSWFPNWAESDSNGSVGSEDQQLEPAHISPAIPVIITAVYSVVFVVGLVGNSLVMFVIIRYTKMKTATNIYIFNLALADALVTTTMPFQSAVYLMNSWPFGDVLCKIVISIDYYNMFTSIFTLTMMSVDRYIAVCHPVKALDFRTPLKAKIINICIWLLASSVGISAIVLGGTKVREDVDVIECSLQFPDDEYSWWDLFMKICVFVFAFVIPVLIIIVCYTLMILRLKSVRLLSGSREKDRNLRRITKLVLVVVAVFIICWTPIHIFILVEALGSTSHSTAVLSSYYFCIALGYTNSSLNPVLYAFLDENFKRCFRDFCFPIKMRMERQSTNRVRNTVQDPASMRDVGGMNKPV

[6] = Displacement of DPDPE from DOR in guinea pig brain membrane fraction after 30 mins by scintillation counting analysis; assay type: cell membranes, Cavia porcellus
[7] = molecular target: T1, Kappa-type opioid receptor; experiment: Binding affinity to KOR (unknown origin)
Mu-type opioid receptor = Mu-type opioid receptor (Homo sapiens, UniProt P35372); experiment: Antagonist activity at MOR (unknown origin) by [35S]GTPgammaS binding assay
Chain of Mu-type opioid receptor (P35372 whole entry): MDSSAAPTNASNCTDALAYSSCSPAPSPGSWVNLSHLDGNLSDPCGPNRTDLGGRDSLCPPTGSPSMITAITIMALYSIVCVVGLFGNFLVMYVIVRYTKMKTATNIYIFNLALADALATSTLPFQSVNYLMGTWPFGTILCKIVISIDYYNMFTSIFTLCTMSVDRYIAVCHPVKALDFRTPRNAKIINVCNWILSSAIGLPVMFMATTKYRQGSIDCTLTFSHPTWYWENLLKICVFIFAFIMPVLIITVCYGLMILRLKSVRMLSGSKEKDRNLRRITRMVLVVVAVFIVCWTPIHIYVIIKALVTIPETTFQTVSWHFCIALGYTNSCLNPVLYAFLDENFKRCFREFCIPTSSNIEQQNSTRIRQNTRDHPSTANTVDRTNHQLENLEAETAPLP

[8] = molecular target: T1, Kappa-type opioid receptor; experiment: Antagonist activity at KOR (unknown origin) by [35S]GTPgammaS binding assay
[9] = molecular target: Delta-type opioid receptor (Homo sapiens, UniProt P41143); experiment: Antagonist activity at DOR (unknown origin) by [35S]GTPgammaS assay; assay type: functional
Chain of Delta-type opioid receptor (P41143 whole entry): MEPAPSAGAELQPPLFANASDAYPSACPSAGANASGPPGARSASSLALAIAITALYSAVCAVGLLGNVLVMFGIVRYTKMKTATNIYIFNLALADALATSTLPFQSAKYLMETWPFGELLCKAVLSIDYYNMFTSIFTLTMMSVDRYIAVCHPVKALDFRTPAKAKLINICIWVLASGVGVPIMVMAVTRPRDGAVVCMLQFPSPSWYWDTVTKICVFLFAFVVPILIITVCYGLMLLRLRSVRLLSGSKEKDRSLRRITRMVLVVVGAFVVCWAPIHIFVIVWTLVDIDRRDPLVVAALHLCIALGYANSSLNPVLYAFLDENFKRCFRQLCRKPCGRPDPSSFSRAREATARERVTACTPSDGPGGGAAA

Mus musculus [10] = experiment: Antinociceptive activity in C57B1/6J mouse at 10 nmol, icv administered 80 mins prior to U50488 addition by warm water tail withdrawal assay; assay type: functional

Cc1cc(C)cc([C@@H]2CCCN2Cc2ccc(Oc3ccc(C(N)=O)cc3F)cc2)c1 [ATICAPRANT]
ED50 (Rattus norvegicus [1]): > 30 mg/kg | ED50 (Rattus norvegicus [2]): > 30 mg/kg

CC[C@H](C)[C@@H]1NC(=O)[C@H](CCCNC(=N)N)NC(=O)[C@@H](NC(=O)[C@H](Cc2ccccc2)NC(=O)CNC(=O)CNC(=O)[C@H](Cc2ccc(O)cc2)NCc2ccccc2)CC(=O)NC[C@@H](C(=O)N[C@@H](CCCNC(=N)N)C(=O)N2CCC[C@H]2C(=O)N[C@@H](CCCCN)C(N)=O)NC1=O
Kb [3]: 84 nM

O=C1N[C@@H](Cc2ccccc2)C(=O)N2CCC[C@@H]2C(=O)N[C@@H](Cc2ccccc2)C(=O)N[C@H]1Cc1c[nH]c2ccccc12 (cyclo(FWF[dP]))
EC50 (Mus musculus [4]): 3.71 nmol | Ki [5]: 35.4 nM | IC50 [6]: 2600 nM

O=C(Nc1cccc(NC(=O)c2cccc(N3CCCCC3)c2)c1)c1cccc(OC2CCN(CC3CC3)CC2)c1
Ki [7]: 0.5 nM | IC50 (Mu-type opioid receptor): > 30000 nM | IC50 [8]: 77 nM | IC50 [9]: > 30000 nM

O=C1N[C@H](Cc2c[nH]c3ccccc23)C(=O)N[C@@H](Cc2ccccc2)C(=O)N2CCC[C@@H]2C(=O)N[C@H]1Cc1ccccc1 (cyclo(F[dP]F[dW]))
Ki [5]: 30.6 nM | Activity (Mus musculus [10]): 10%
